According to patent US10568937B2, “Formulations of abaloparatide, transdermal patches thereof, and uses thereof” (priority 2016, dated 2020):

Legend:
rat femur fracture model = assay: Rat femur fracture model, fracture healing; format: in vivo
Excerpt: Certain embodiments of the methods disclosed herein also include the use of the microprojection arrays as described herein in their various embodiments to accelerate fracture healing in a patient who has suffered one or more fractures and for which the fractures are not completely healed. Healing of bone fractures (eg long bone fractures) involves endochondral and intramembranous bone formation, which together form a callus that achieves union, stabilization, and gradual recovery of bone strength. […] Sixteen rats from each group were necropsied after 4 and 6 weeks of healing, with 12 fractured femurs per group used for micro-CT and biomechanical testing and the other 4 femurs used for micro-CT and histology.

[1] = Subcutaneous 80 μg abaloparatide versus placebo: fractures, BMD, TBS; format: in vivo; conditions: subcutaneous administration
Method: In certain embodiments, the abaloparatide-SC treatment comprises subcutaneous administration of an aqueous formulation comprising abaloparatide (about 2 mg/mL) in an acetate buffer, with a pH of about 4.5 to about 5.6, or about 5.1. Optionally, the aqueous formulation further comprises phenol (about 5 mg/mL). In certain examples of these embodiments, the acetate buffer comprises tri-hydrate sodium acetate (about 5 mg/mL) with pH (e.g., about 4.5 to about 5.6, or about 5.1) adjusted with acetic acid. Unless specifically stated otherwise, comparative abaloparatide sc dose use an 80 μg dose delivered subcutaneously to the periumbilicular region of the abdomen of the patient.

[2] = test system: ovariectomy-induced osteopenic rats and monkeys; conditions: cited from earlier work

## [Glu^22,25, Leu^23,28,31, Aib^29, Lys^26,30]hPTHrP(1-34)NH2 [abaloparatide]
Rat femur fracture model; 5 ug/kg/d, week 4, three-point bending
  callus stiffness, higher vs VEH: 60%
Rat femur fracture model; 5 ug/kg/d, week 6
  callus stiffness, higher vs VEH: 112%
Rat femur fracture model; 25 ug/kg/d, week 4
  callus peak load, higher vs VEH: 77%
Rat femur fracture model; 25 ug/kg/d, week 4, three-point bending
  callus stiffness, higher vs VEH: 96%
Rat femur fracture model; 5 and 25 ug/kg/d, week 4, vs VEH
  callus area (histomorphometry): significantly greater callus area
Rat femur fracture model; 5 and 25 ug/kg/d, weeks 4 and 6, vs VEH
  callus bone volume, bone volume fraction, and BMC (micro-CT): significantly greater
Rat femur fracture model; 5 or 25 ug/kg/d sc daily, week 4, vs VEH
  cortical bridging across the fracture gap (semi-quantitative histologic scoring): significantly greater bridging
Rat femur fracture model; both abaloparatide groups, week 6
  callus peak load vs VEH: numerically higher
[1]
  BMD and/or TBS at the lumbar spine, total hip, and femoral neck: improve
[2]
  bone loss: complete reversal of bone loss
